{
  "source": "patent US20100150938A1",
  "about": "“METHODS AND COMPOSITIONS FOR REDUCING INFLAMMATION AND TREATING INFLAMMATORY DISORDERS” (UNIVERSITY OF MASSACHUSETTS, priority 2008, published 2010)",
  "key": {"[1]": {"test_system": "mice", "test": "Stereotaxic brain microinjection, microglial recruitment (F4/80)", "format": "in vivo, mouse", "settings": "wild type mice, 1 μl of 1 mg/ml into striatum, 48 h", "description": "Injections were performed as described^27. Briefly, six week old mice (n=4 in each group) were anesthetized with ketamine (100 mg/kg i.p.; Webster) and xylazine (10 mg/kg i.p.; Webster), placed on a homoeothermic heating blanket (Harvard Apparatus) and immobilized in a stereotaxic frame (Stoelting). A linear skin incision was made under sterile conditions, and a small hole was created in the skull using a dental drill 1 mm anterior and 2 mm lateral to bregma over both hemispheres. 1 μl Aβ in sterile pyrogen-free saline (1 mg/ml) was inoculated on the left side, and the same amount of revAβ was inoculated on the right side, using separate Hamilton syringes. Mice were allowed to fully recover on a heating blanket. After 48 hours, the mice were anesthetized with ketamine/xylazine and transcardially perfused with 4% paraformaldehyde in PBS. Brains were removed, placed in 4% PFA overnight at 4° C., and then transferred to PBS and stored at 4° C. until sectioning. Coronal 60 μm sections were taken using a vibratome (Leica). […] To quantify the number of microglia recruited to sites of microinjection, serial sections from each site of injection were visualized by fluorescence microscopy (Nikon Eclipse E400) and digitally photographed. […] Fluorescence intensity of microglia immunoreactive for F4/80 at each injection site was quantified using ImageJ (NIH)."}, "[2]": {"test_system": "caspase-1", "test": "Caspase-1 activation in microglia (FLICA, confocal microscopy, flow cytometry)", "format": "cell-based, mouse", "settings": "immortalized microglia, Aβ 10 μM, revAβ 10 μM, ATP 1 mM, 4 h", "description": "For assessment of microglia-induced neurotoxicity, CAD mouse neuronal cells^47 were seeded on poly-L-lysine coated glass cover slips and grown in F12/DMEM supplemented with ciprofloxacin (Cellgro, Manassas, Va.) and 10% fetal calf serum (Hyclone, Logan, Utah) for 24 h. Differentiation was induced by withdrawal of serum for 48 h Immortalized microglia from wildtype or caspase-1^−/− mice were added in serum free medium to obtain mixed neuronal/microglial cultures and immediately stimulated. 72 h after stimulation with Aβ or media, cells were fixed, stained for the neuron-specific marker TuJ-1 and microglial marker CD11b, and imaged by confocal microscopy (Leica SP2 AOBS). Caspase-1 activity in microglial cells was assessed using the caspase-1 FLICA™ kit (Immunochemistry Technologies, Bloomington, Minn.) according to the manufacturer's instructions.\n(§1) For evaluation of lysosomal damage, cells were incubated with LysoTracker green (1:2000) for 30 min and stimulated as described. Lysosomal damage was defined as loss of LysoTracker fluorescence as assessed by flow cytometry. All flow cytometry experiments were performed on an LSRII cytometer (BD Biosciences), data were acquired by DIVA software (BD Biosciences) and analyzed with FlowJo software (Tree Star Inc., Ashland, Oreg.).\nIL-1β maturation is controlled by caspase-1 after assembly of the inflammasome, a multi protein complex that activates pro-caspase-1. In order to test whether Aβ activates caspase-1, we measured levels of activated caspase-1 using a fluorescent cell permeable probe (FAM-YVAD-Fmk), which covalently binds only to activated caspase-1 (Fluorescent labeled Inhibitors of Caspases, FLICA)^14. […] Similar results were obtained in primary microglial cultures (FIG. 15c)."}, "[3]": {"test_system": "lysosomes of microglia", "test": "Lysosomal swelling and damage in microglia after Aβ phagocytosis (LAMP-1, cathepsin B, LysoTracker)", "format": "cell-based, mouse", "description": "Neuronal, microglial, mixed neuronal/microglial and primary mixed glial cultures were fixed with 4% paraformaldehyde for 30 min and incubations with respective primary and secondary antibodies were performed for 2 h at room temperature in PBS containing 1% bovine serum albumin, 5% fetal calf serum and 0.05% saponin Cell nuclei were stained with Hoechst 33258 (1:1000).\nas §1"}, "[4]": {"test_system": "caspase-1", "test": "Caspase-1 cleavage/activation in mouse macrophages (Western blot p10)", "format": "cell-based", "settings": "LPS-primed wild type bone marrow-derived macrophages, Aβ and reverse Aβ 10 μM", "description": "Bone marrow derived macrophages were generated as described (Severa, M et al. Journal of Biological Chemistry 281:26188-26195 (2006)). Human PBMCs were isolated by from whole blood of healthy volunteers by density gradient centrifugation. Lysis of red blood cells was performed using red blood cell lysis buffer (Sigma). Experiments in PBMCs and macrophages were carried out at a cell density of 2×10^6 cells/ml. All primary cells and cell lines except THP-1 cells were cultured in DMEM supplemented with L-glutamine, ciprofloxacin (Cellgro, Manassas, Va.) and 10% fetal calf serum (Hyclone, Logan, Utah). THP-1 cells were cultured in RPMI supplemented with 10% fetal calf serum (Hyclone), L-glutamine, sodium pyruvate (Cellgro), and ciprofloxacin. One day prior to stimulation, THP-1 cells were differentiated using 0.5 μM PMA for three hours, washed three times and plated for stimulation. All experiments that were performed for Western blot analysis were carried out in serum free DMEM medium. ATP stimulations were carried out at 5 mM one hour prior to harvesting supernatants.\nCell culture supernatants were precipitated by adding an equal volume of methanol and 0.25 volumes of chloroform, vortexed and centrifuged at 20.000×g for 10 min. The upper phase was discarded and 500 μl of methanol was added to the interphase. This mixture was centrifuged at 20.000×g for 10 min and the protein pellet dried at 55° C., resuspended in Laemmli buffer and boiled at 99° C. for 5 min. Samples were separated by SDS-PAGE (15%) and transferred onto nitrocellulose membranes. As indicated, blots were incubated with rabbit polyclonal antibody to anti murine caspase-1 p10 (sc-514, Santa Cruz Biotechnology, Santa Cruz, Calif.), rabbit polyclonal anti human caspase-1 p10 (sc-515, Santa Cruz Biotechnology), rabbit polyclonal anti human cleaved IL-1β (Asp116) (Cell Signaling, Boston, Mass.) or rabbit polyclonal anti murine cathepsin B (R&D Systems, Minneapolis, Minn.).\nCell culture supernatants were precipitated by adding an equal volume of methanol and 0.25 volumes of chloroform, vortexed and centrifuged at 20,000×g for 10 min. The upper phase was discarded and 500 μl of methanol was added to the interphase. This mixture was centrifuged at 20,000×g for 10 min and the protein pellet dried at 55° C., resuspended in Laemmli buffer and boiled at 99° C. for 5 min Samples were separated by SDS-PAGE (15%) and transferred onto nitrocellulose membranes. Blots were incubated with rabbit polyclonal antibody to anti murine caspase-1 p10 (sc-514, Santa Cruz Biotechnology, Santa Cruz, Calif.)."}},
  "note": "“Also recorded” adds a separate entry of the source.",
  "data": [
    {"substance": "Aβ 1-42 peptide", "values": [
      {"measurement": "microglia around the injection site (F4/80)", "setting": "[1]", "value": "strong recruitment and chemotaxis of microglia"},
      {"measurement": "caspase-1 positive microglial cells after stimulation", "setting": "[2]", "value": "robust increase"},
      {"measurement": "cells with enlarged lysosomes not staining for cathepsin B", "setting": "[3]; microglia, 4 h after Aβ stimulation", "value": "15-20%"},
      {"measurement": "diameter of Aβ-containing lysosomes, largest observed", "setting": "[3]; microglia, Aβ-FITC", "value": "up to 11 μm"},
      {"measurement": "diameter of Aβ-containing lysosomes, mean", "setting": "[3]; microglia, Aβ-FITC", "value": "4.1±0.4", "unit": "μm"},
      {"measurement": "cells with extensive enlargement and swelling of Aβ-containing lysosomes", "setting": "[3]; microglia, of all cells", "value": "~15", "unit": "%"},
      {"measurement": "cells negative for LysoTracker fluorescence", "setting": "[3]; wild type microglia, Aβ 1, 3 and 10 μM, flow cytometry", "value": "increased dose-dependently; also recorded: induced loss of LysoTracker Green fluorescence"},
      {"measurement": "caspase-1 cleavage (p10) induced by the stimulus", "setting": "[4]", "value": "induced caspase-1 cleavage (p10)"}
    ]}
  ]
}
